Test results from ChEMBL document CHEMBL5055633, “Amphipathic Barbiturates as Mimics of Antimicrobial Peptides and the Marine Natural Products Eusynstyelamides with Activity against Multi-resistant Clinical Isolates” (J Med Chem, 2021).
Values after ≈ are worked out from the molar mass of the structure shown.

How the values were obtained:
Enterococcus faecium [1] = assay: Antimicrobial activity against extended spectrum-lactamase-carbapenemas producing Enterococcus faecium strain 50758899 assessed as reduction in bacterial growth incubated for 48 hrs by microdilution method; type: functional
Pseudomonas aeruginosa [2] = assay: Antimicrobial activity against verona integron-encoded metallo-beta-lactamase-2 producing Pseudomonas aeruginosa K34-7 assessed as reduction in bacterial growth incubated for 48 hrs by microdilution method; type: functional
Staphylococcus aureus [3] = assay: Antimicrobial activity against extended spectrum-lactamase-carbapenemas producing Staphylococcus aureus N315 assessed as reduction in bacterial growth incubated for 48 hrs by microdilution method; type: functional
Acinetobacter baumannii [4] = assay: Antimicrobial activity against oxacillinase-58 producing Acinetobacter baumannii K12-21 assessed as reduction in bacterial growth incubated for 48 hrs by microdilution method; type: functional
HepG2 = assay: Cytotoxicity against human HepG2 cells assessed as reduction in cell viability incubated for 24 hrs by colorimetric tetrazolium assay; type: functional, cell-based; details: HepG2, 24 h
Escherichia coli [5] = assay: Antimicrobial activity against verona integron-encoded metallo-beta-lactamase-29-producing Escherichia coli 50639799 assessed as reduction in bacterial growth incubated for 48 hrs by microdilution method; type: functional
Escherichia coli [6] = assay: Antimicrobial activity against Escherichia coli ATCC 25922 assessed as reduction in bacterial growth incubated for 48 hrs by microdilution susceptibility test; type: functional
Acinetobacter baumannii [7] = assay: Antimicrobial activity against oxacillinase-24 producing Acinetobacter baumannii K55-13 assessed as reduction in bacterial growth incubated for 48 hrs by microdilution method; type: functional
Escherichia coli [8] = assay: Antimicrobial activity against oxacillinase-producing Escherichia coli 50579417 assessed as reduction in bacterial growth incubated for 48 hrs by microdilution method; type: functional
Pseudomonas aeruginosa [9] = assay: Antimicrobial activity against New Delhi metallo-beta lactamase-1 producing Pseudomonas aeruginosa 50692172 assessed as reduction in bacterial growth incubated for 48 hrs by microdilution method; type: functional
Staphylococcus aureus [10] = assay: Antimicrobial activity against Staphylococcus aureus ATCC 9144 assessed as reduction in bacterial growth incubated for 48 hrs by microdilution susceptibility test; type: functional
Escherichia coli [11] = assay: Antimicrobial activity against imipenem-type carbapenemase-26 producing Escherichia coli 50857972 assessed as reduction in bacterial growth incubated for 48 hrs by microdilution method; type: functional
Acinetobacter baumannii [12] = assay: Antimicrobial activity against oxacillinase-23 producing Acinetobacter baumannii K44-35 assessed as reduction in bacterial growth incubated for 48 hrs by microdilution method; type: functional
Pseudomonas aeruginosa [13] = assay: Antimicrobial activity against imipenem-type carbapenemase-14 producing Pseudomonas aeruginosa K44-24 assessed as reduction in bacterial growth incubated for 48 hrs by microdilution method; type: functional
Acinetobacter baumannii [14] = assay: Antimicrobial activity against oxacillinase-23 producing Acinetobacter baumannii K47-42 assessed as reduction in bacterial growth incubated for 48 hrs by microdilution method; type: functional
Enterococcus faecium [15] = assay: Antimicrobial activity against extended spectrum-lactamase-carbapenemas producing Enterococcus faecium strain 50673722 assessed as reduction in bacterial growth incubated for 48 hrs by microdilution method; type: functional
Enterococcus faecium [16] = assay: Antimicrobial activity against extended spectrum-lactamase-carbapenemas producing Enterococcus faecium strain 50901530 assessed as reduction in bacterial growth incubated for 48 hrs by microdilution method; type: functional
Staphylococcus aureus [17] = assay: Antimicrobial activity against extended spectrum-lactamase-carbapenemas producing Staphylococcus aureus NCTC 10442 assessed as reduction in bacterial growth incubated for 48 hrs by microdilution method; type: functional
Staphylococcus aureus [18] = assay: Antimicrobial activity against extended spectrum-lactamase-carbapenemas producing Staphylococcus aureus strain IHT 99040 assessed as reduction in bacterial growth incubated for 48 hrs by microdilution method; type: functional
Enterococcus faecium [19] = assay: Antimicrobial activity against extended spectrum-lactamase-carbapenemas producing Enterococcus faecium strain TUH.50-22 assessed as reduction in bacterial growth incubated for 48 hrs by microdilution method; type: functional
Pseudomonas aeruginosa [20] = assay: Antimicrobial activity against Pseudomonas aeruginosa PAO1 assessed as reduction in bacterial growth incubated for 48 hrs by microdilution susceptibility test; type: functional
Acinetobacter baumannii [21] = assay: Antimicrobial activity against oxacillinase-23 producing Acinetobacter baumannii K63-58 assessed as reduction in bacterial growth incubated for 48 hrs by microdilution method; type: functional
Staphylococcus aureus [22] = assay: Antimicrobial activity against extended spectrum-lactamase-carbapenemas producing Staphylococcus aureus strain WIS assessed as reduction in bacterial growth incubated for 48 hrs by microdilution method; type: functional
[23] = Antimicrobial activity against New Delhi metallo-beta lactamase-1 Klebsiella pneumoniae K66-45 assessed as reduction in bacterial growth incubated for 48 hrs by microdilution method; type: functional
Pseudomonas aeruginosa [24] = assay: Antimicrobial activity against verona integron-encoded metallo-beta-lactamase-4 producing Pseudomonas aeruginosa K34-73 assessed as reduction in bacterial growth incubated for 48 hrs by microdilution method; type: functional
Enterococcus faecium [25] = assay: Antimicrobial activity against extended spectrum-lactamase-carbapenemas producing Enterococcus faecium strain K36-18 assessed as reduction in bacterial growth incubated for 48 hrs by microdilution method; type: functional
[26] = Antimicrobial activity against oxacillinase-245 producing Klebsiella pneumoniae 50625602 assessed as reduction in bacterial growth incubated for 48 hrs by microdilution method; type: functional
Staphylococcus aureus [27] = assay: Antimicrobial activity against extended spectrum-lactamase-carbapenemas producing Staphylococcus aureus strain 85/2082 assessed as reduction in bacterial growth incubated for 48 hrs by microdilution method; type: functional
[28] = Antimicrobial activity against verona integron-encoded metallo-beta-lactamase -1 producing Klebsiella pneumoniae 50667959 assessed as reduction in bacterial growth incubated for 48 hrs by microdilution method; type: functional
Pseudomonas aeruginosa [29] = assay: Antimicrobial activity against verona integron-encoded metallo-beta-lactamase producing Pseudomonas aeruginosa 50692520 assessed as reduction in bacterial growth incubated for 48 hrs by microdilution method; type: functional
Escherichia coli [30] = assay: Antimicrobial activity against New Delhi metallo-beta lactamase-1 producing Escherichia coli 50739822 assessed as reduction in bacterial growth incubated for 48 hrs by microdilution method; type: functional
MRC5 = assay: Cytotoxicity against human MRC5 cells assessed as reduction in cell viability incubated for 24 hrs by colorimetric tetrazolium assay; type: functional, cell-based; details: MRC5, 24 h
[31] = tested on: Corynebacterium glutamicum; assay: Antimicrobial activity against Corynebacterium glutamicum ATCC 13032 assessed as reduction in bacterial growth incubated for 48 hrs by microdilution susceptibility test; type: functional
[32] = Hemolytic activity in human erythrocytes incubated for 1 hr by microplate reader; type: functional, cell-based; details: erythrocyte
[33] = Antimicrobial activity against New Delhi metallo-beta lactamase-1 and oxacillinase -181 producing Klebsiella pneumoniae 50531633 assessed as reduction in bacterial growth incubated for 48 hrs by microdilution method; type: functional
[34] = Antimicrobial activity against carbapenemase producing Klebsiella pneumoniae K47-25 assessed as reduction in bacterial growth incubated for 48 hrs by microdilution method; type: functional
Escherichia coli [35] = assay: Antimicrobial activity against New Delhi metallo-beta lactamase-1 producing Escherichia coli 50676002 assessed as reduction in bacterial growth incubated for 48 hrs by microdilution method; type: functional

Row | Compound | MIC (Enterococcus faecium [1]) | MIC (Pseudomonas aeruginosa [2]) | MIC (Staphylococcus aureus [3]) | MIC (Acinetobacter baumannii [4]) | IC50 (HepG2) | MIC (Escherichia coli [5]) | MIC (Escherichia coli [6]) | MIC (Acinetobacter baumannii [7]) | MIC (Escherichia coli [8]) | MIC (Pseudomonas aeruginosa [9]) | MIC (Staphylococcus aureus [10]) | MIC (Escherichia coli [11]) | MIC (Acinetobacter baumannii [12]) | MIC (Pseudomonas aeruginosa [13]) | MIC (Acinetobacter baumannii [14]) | MIC (Enterococcus faecium [15]) | MIC (Enterococcus faecium [16]) | MIC (Staphylococcus aureus [17]) | MIC (Staphylococcus aureus [18]) | MIC [31] | also measured
1 | N=C(N)NCCCCN1C(=O)N(CCCCNC(=N)N)C(=O)C(Cc2ccc3ccccc3c2)(Cc2ccc3ccccc3c2)C1=O.O=C(O)C(F)(F)F.O=C(O)C(F)(F)F | 16 µg/mL | 32 µg/mL | 8 µg/mL | 32 µg/mL | 59 µg/mL | 8 µg/mL | 1 µg/mL | 32 µg/mL | 16 µg/mL | 32 µg/mL | 1 µg/mL | 8 µg/mL | 32 µg/mL | 32 µg/mL | 32 µg/mL | 16 µg/mL | 8 µg/mL | 8 µg/mL | 8 µg/mL | 0.25 µg/mL | MIC (Enterococcus faecium [19]): 8 µg/mL; MIC (Pseudomonas aeruginosa [20]): 8 µg/mL; MIC (Acinetobacter baumannii [21]): 32 µg/mL; MIC (Staphylococcus aureus [22]): 8 µg/mL; MIC [23]: 16 µg/mL; MIC (Pseudomonas aeruginosa [24]): 32 µg/mL; MIC (Enterococcus faecium [25]): 16 µg/mL; MIC [26]: 16 µg/mL; MIC (Staphylococcus aureus [27]): 8 µg/mL; MIC [28]: 16 µg/mL; MIC (Pseudomonas aeruginosa [29]): 32 µg/mL; MIC (Escherichia coli [30]): 8 µg/mL; IC50 (MRC5): 30 µg/mL; EC50 [32]: 133 µg/mL; MIC [33]: 16 µg/mL; MIC [34]: 16 µg/mL; MIC (Escherichia coli [35]): 8 µg/mL
2 | CN(C)[C@@H]1C(O)=C(C(N)=O)C(=O)[C@@]2(O)C(O)=C3C(=O)c4c(O)cccc4[C@@](C)(O)[C@H]3[C@H](O)[C@@H]12 [OXYTETRACYCLINE] | – | – | – | – | – | – | 20 µg/mL (≈ 43.4 µM) | – | – | – | 0.65 µg/mL (≈ 1.41 µM) | – | – | – | – | – | – | – | – | 2.5 µg/mL (≈ 5.43 µM) | –
3 | N=C(N)NCCCCN1C(=O)N(CCCCNC(=N)N)C(=O)C(Cc2ccc(C(F)(F)F)cc2)(Cc2ccc(C(F)(F)F)cc2)C1=O.O=C(O)C(F)(F)F.O=C(O)C(F)(F)F | > 32 µg/mL | > 32 µg/mL | 4 µg/mL | > 32 µg/mL | 104 µg/mL | 16 µg/mL | 8 µg/mL | > 32 µg/mL | 32 µg/mL | > 32 µg/mL | 2 µg/mL | 16 µg/mL | > 32 µg/mL | > 32 µg/mL | > 32 µg/mL | 32 µg/mL | 8 µg/mL | 4 µg/mL | 8 µg/mL | 0.25 µg/mL | MIC (Enterococcus faecium [19]): 32 µg/mL; MIC (Pseudomonas aeruginosa [20]): 64 µg/mL; MIC (Acinetobacter baumannii [21]): > 32 µg/mL; MIC (Staphylococcus aureus [22]): 4 µg/mL; MIC [23]: > 32 µg/mL; MIC (Pseudomonas aeruginosa [24]): > 32 µg/mL; MIC (Enterococcus faecium [25]): 32 µg/mL; MIC [26]: > 32 µg/mL; MIC (Staphylococcus aureus [27]): 4 µg/mL; MIC [28]: > 32 µg/mL; MIC (Pseudomonas aeruginosa [29]): > 32 µg/mL; MIC (Escherichia coli [30]): 32 µg/mL; IC50 (MRC5): 74 µg/mL; EC50 [32]: > 449 µg/mL; MIC [33]: > 32 µg/mL; MIC [34]: > 32 µg/mL; MIC (Escherichia coli [35]): 32 µg/mL
4 | NCCCCN1C(=O)N(CCCCN)C(=O)C(Cc2ccc3ccccc3c2)(Cc2ccc3ccccc3c2)C1=O.O=C(O)C(F)(F)F.O=C(O)C(F)(F)F | 16 µg/mL | 32 µg/mL | 8 µg/mL | 32 µg/mL | 7 µg/mL | 16 µg/mL | 16 µg/mL | 32 µg/mL | 16 µg/mL | 32 µg/mL | 8 µg/mL | 16 µg/mL | 32 µg/mL | > 32 µg/mL | 32 µg/mL | 16 µg/mL | 8 µg/mL | 8 µg/mL | 8 µg/mL | 1 µg/mL | MIC (Enterococcus faecium [19]): 8 µg/mL; MIC (Pseudomonas aeruginosa [20]): 16 µg/mL; MIC (Acinetobacter baumannii [21]): 16 µg/mL; MIC (Staphylococcus aureus [22]): 8 µg/mL; MIC [23]: > 32 µg/mL; MIC (Pseudomonas aeruginosa [24]): 32 µg/mL; MIC (Enterococcus faecium [25]): 16 µg/mL; MIC [26]: > 32 µg/mL; MIC (Staphylococcus aureus [27]): 8 µg/mL; MIC [28]: > 32 µg/mL; MIC (Pseudomonas aeruginosa [29]): 32 µg/mL; MIC (Escherichia coli [30]): 16 µg/mL; IC50 (MRC5): 2 µg/mL; EC50 [32]: 250 µg/mL; MIC [33]: 32 µg/mL; MIC [34]: > 32 µg/mL; MIC (Escherichia coli [35]): 16 µg/mL
